ChEMBL document CHEMBL3638822, “Pyrazolopyrimidine compounds and their use as PDE10 inhibitors” (2015)

Target: T1, Phosphodiesterase (Bos taurus, UniProt F1MPW5)
T1 sequence (F1MPW5 whole entry): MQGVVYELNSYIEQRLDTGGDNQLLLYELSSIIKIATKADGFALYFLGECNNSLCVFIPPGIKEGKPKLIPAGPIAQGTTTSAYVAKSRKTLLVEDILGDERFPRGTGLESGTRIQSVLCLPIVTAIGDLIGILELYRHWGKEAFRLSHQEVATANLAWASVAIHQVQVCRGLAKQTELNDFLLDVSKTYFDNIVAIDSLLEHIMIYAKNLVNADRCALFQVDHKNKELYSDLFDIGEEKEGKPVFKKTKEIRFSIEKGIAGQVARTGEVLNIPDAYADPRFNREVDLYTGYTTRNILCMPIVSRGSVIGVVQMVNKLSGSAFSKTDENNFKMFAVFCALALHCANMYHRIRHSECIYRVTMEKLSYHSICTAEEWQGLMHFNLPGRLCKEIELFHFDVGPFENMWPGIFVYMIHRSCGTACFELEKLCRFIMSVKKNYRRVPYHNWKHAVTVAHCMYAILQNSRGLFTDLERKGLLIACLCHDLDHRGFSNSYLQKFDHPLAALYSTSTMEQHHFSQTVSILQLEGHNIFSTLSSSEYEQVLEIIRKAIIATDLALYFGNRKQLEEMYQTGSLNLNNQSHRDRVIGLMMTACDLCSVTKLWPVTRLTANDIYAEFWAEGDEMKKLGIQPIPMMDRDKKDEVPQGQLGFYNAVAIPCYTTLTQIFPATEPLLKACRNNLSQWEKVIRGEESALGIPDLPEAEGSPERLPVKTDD
Experiment: Inhibition Assay: The PDE assay was performed according to a modified method referred to a report of Kotera et al. (Kotera et al., Biochem. Pharmacol., vol. 60, pp. 1333-1341, 2000), by the radiolabeled nucleotide method.Specifically, the measurements of the inhibitory activities were carried out in the following method.(Method) The test compounds were dissolved in dimethyl sulfoxide (DMSO). 2 uL of the compound solution was added to 96 well plate, and the reaction mixture (20 uL of PDE enzyme solution in 50 mM Tris-HCl, pH 8.0, 40 uL of the assay buffer (50 mM Tris-HCl, pH 8.0, 2 mM MgCl2, 0.07% 2-mercaptoethanol, and 0.825 mg/mL bovine serum albumin), and 20 uL of 1 mg/mL snake venom in 50 mM Tris-HCl, pH8.0) was added to the 96 well plate. The enzyme reaction was started by adding and mixing with substrate solution of 20 L containing approximate 35 nM 3H-cAMP in 50 mM Tris-HCl, pH 8.0. The final concentration of cAMP in the reaction mixtures was 7 nM.

Row | SMILES | IC50 [nM]
1 | Cc1nc2ccccc2nc1-c1cc2nc(N3CCCC3)cc(NC3CCOCC3)n2n1 | 0.11
2 | Cc1ccc2nc(C)c(-c3cc4nc(N5CCC[C@H]5CO)cc(N(C5CCOCC5)C5CC5)n4n3)nc2c1 | 0.0068
3 | Cc1nc2ccccc2nc1-c1cc2nc(N3CCCC3)cc(N(C)C3CCOCC3)n2n1 | 0.0045
4 | Cc1nc2ccccc2nc1-c1cc2nc(N3CC[C@@H](F)C3)cc(NC3CCOCC3)n2n1 | 0.83
5 | Cc1nc2ccc(F)cc2nc1-c1cc2nc(N3CC[C@@H](F)C3)cc(NCC(C)(C)O)n2n1 | 0.09
6 | Cc1nc2ccccc2nc1-c1cc2nc(N3CC=CC3)cc(NC3CCOCC3)n2n1 | 0.2
7 | Cc1nc2ccccc2nc1-c1cc2nc(N3CCCC3)cc(OC3CCOCC3)n2n1 | 0.38
8 | Cc1nc2ccccc2nc1-c1cc2nc(C3=CCCC3)cc(NC3CCOCC3)n2n1 | 0.22
9 | Cc1nc2ccc(F)cc2nc1-c1cc2nc(N3CC[C@@H](F)C3)cc(N[C@H]3CC[C@](C)(O)CC3)n2n1 | 0.09
10 | Cc1nc2ccccc2nc1-c1cc2nc(N3CCCC3)cc(N3CCCC3)n2n1 | 0.57
11 | Cc1nc2ccccc2nc1-c1cc2nc(N3CCCC3)cc(NC[C@H](O)C(F)(F)F)n2n1 | 0.13
12 | Cc1nc2ccccc2nc1-c1cc2nc(N3CCCC3)cc(NCCC#N)n2n1 | 0.052
13 | CO[C@H]1CC[C@H](Nc2cc(N3CCCC3)nc3cc(-c4nc5cc(C(F)(F)F)ccc5nc4C)nn23)CC1 | 0.045
14 | Cc1nc2ccccc2nc1-c1cc2nc(N3CC[C@@H](F)C3)cc(NC3COC3)n2n1 | 0.65
15 | Cc1nc2ccccc2nc1-c1cc2nc(N3CC[C@@H](F)C3)cc(NCC(C)(C)O)n2n1 | 0.32
16 | Cc1nc2ccccc2nc1-c1cc2nc(N3CC[C@@H](F)C3)cc(NC3CC3)n2n1 | 0.87
17 | CCc1nc2ccccc2nc1-c1cc2nc(N3CC[C@@H](F)C3)cc(N[C@H]3CC[C@H](OC)CC3)n2n1 | 0.39
18 | C[C@]1(O)CC[C@H](Nc2cc(N3CC[C@@H](F)C3)nc3cc(-c4nc5ccccc5nc4C(F)(F)F)nn23)CC1 | 0.18
19 | Cc1nc2ccc(F)cc2nc1-c1cc2nc(N3CCCC3)cc(N[C@H]3CCCC[C@@H]3O)n2n1 | 0.035
20 | Cc1nc2c(C)cccc2nc1-c1cc2nc(N3CCCC3)cc(NC3CCOCC3)n2n1 | 0.78
21 | Cc1ccc2nc(-c3cc4nc(N5CCCC5)cc(NC5CCOCC5)n4n3)c(C)nc2c1 | 0.46
22 | Cc1ccc2nc(C)c(-c3cc4nc(N5CCCC5)cc(N[C@@H]5CCS(=O)(=O)C5)n4n3)nc2c1 | 0.0085
23 | CC(=O)N1CCC(Nc2cc(N3CCCC3)nc3cc(-c4nc5cc(C)ccc5nc4C)nn23)CC1 | 0.044
24 | CCCN1CCC(Nc2cc(N3CCCC3)nc3cc(-c4nc5cc(C)ccc5nc4C)nn23)CC1 | 0.15
25 | Cc1ccc2nc(C)c(-c3cc4nc(N5CCCC5)cc(NCCN(C)C)n4n3)nc2c1 | 0.17
26 | Cc1nc2c(nc1-c1cc3nc(N4CCCC4)cc(NC4CCC(F)(F)CC4)n3n1)CCCC2 | 0.23
27 | Cc1nc(C)c(-c2cc3nc(N4CCCC4)cc(N(C)C4CCOCC4)n3n2)nc1C | 0.48
28 | Cc1nc2ccccc2nc1-c1cc2nc(N3CCC[C@H]3CO)cc(N[C@@H]3CCCOC3)n2n1 | 0.39
29 | Cc1ccc2nc(C)c(-c3cc4nc(N5CC(O)C5)cc(NC5CCOCC5)n4n3)nc2c1 | 1.08
30 | Cc1nc2ccccc2nc1-c1cc2nc(N3CCCC3)cc(CC3CCOCC3)n2n1 | 0.36
